According to patent US20260374739A1, “SMALL MOLECULAR WEIGHT CHEMICAL COMPOUND TO ANTAGONIZE EPH-EPHRIN TETRAMERIZATION AND INHIBIT BIDIRECTIONAL SIGNALING” (THE BOARD OF REGENTS OF THE UNIVERSITY OF TEXAS SYSTEM, priority 2022, published 2026):
Entries after “also recorded” stand apart in the source; their conditions may differ.

What was measured:
[1] = tested on: normal human dermal fibroblast (NHDF) cells; test: MTT cytotoxicity; type: cell-based; settings: up to 10 μM, 48 hr
Description: Potential cytotoxicity of A20 was evaluated using MTT assay performed after culturing normal human dermal fibroblast (NHDF) cells with increasing concentrations of A20 for 48 hr.

[2] = tested on: morphine withdrawal in mice; test: naloxone-precipitated morphine withdrawal behaviors; type: in vivo, mouse; settings: 30 mg/kg IP, 4×12 hr
Description: Eight month old male EphB1^+/+ WT mice EphB1^−/− KO mice from the Henkemeyer mouse colony were injected intraperitoneally (IP) with increasing morphine doses in normal saline every 12 h for 4 consecutive days (day 1:20 mg/kg, day 2:40 mg/kg, day 3:60 mg/kg, day 4:80 mg/kg) and on the fifth day in the morning they were injected with a final 100 mg/kg morphine dose which was staggered by one mouse every 30 minutes. Exactly 3 h after the last morphine injection, each mouse was weighed, and withdrawal was precipitated using naloxone hydrochloride that was subcutaneously injected at 1 mg/kg. Withdrawal signs were then monitored by an examiner who was blinded to animal genotypes for 30 min after naloxone administration to identify the number of jumps, wet dog shakes, and diarrhea events observed in the 30 min period, and % change in weight from before naloxone administration to 30 min post withdrawal. For tremor and ptosis, the presence of tremor and/or a drooping upper eyelid is monitored at the beginning of each 5 min interval during the 30 min monitoring period.
WT CD1 mice was used in one experiment and WT C57BL/6 mice was used in the other. All mice were 4-5-month-old males. In both cases, 30 mg/kg A20 free base dissolved in 6% DMSO/94% sunflower seed oil was administered in 4×12 hr IP dosings to mice that were at an entering dose 6 of a 9×12 hr IP schedule of escalating morphine (2×20, 2×40, 2×60, 2×80, and 1×100 mg/kg). Naloxone was given exactly 3 hr after the last A20/morphine dose and withdrawal behaviors were monitored for 30 min. Both groups of mice were scored for jumping (FIG. 70A) and the C57BL/6 mice were additionally scored at 5 min intervals for diarrhea, tremor, and ptosis (FIG. 70B). […] In summary, A20 tetramerization inhibitor compounds serve to help reduce the adverse effects of opioid use and abuse, and could possibly be used to help wean people off of terribly addictive narcotic drugs.

[3] = tested on: DH neurons in the spinal cord; test: dorsal horn neuron activation (Trap2/Ai9) after CFA; type: in vivo, mouse; settings: listed as A20
Description: FIG. 65 depicts development of a quantitative fluorescent method to assess the activation of DH neurons in the spinal cord following a chronic, […]. The left hind paws of EphB1+/+ wild-type, EphB1+/− heterozygous, and EphB1−/− homozygous mutant mice that also contained the Trap2/CreERT2 driver and the Ai9/tdTomato reporter were injected once with CFA to induce inflammatory pain. Four hours later, mice were then injected IP with 4-hydroxy-tamoxifen (4-OHT, 40 mg/kg in sunflower seed oil) to activate Cre recombinase and permanently label with red fluorescence the neurons that were activated during the short window of time (~8 hr) until the 4-OHT is degraded. Fourteen days later, animals were perfused with 4% paraformaldehyde dissolved in PBS and then […] thick vibratome serial sections of the lumbar spinal cord were obtained, mounted, and viewed under fluorescence microscopy to identify red labeled neurons in the superficial dorsal horn of the spinal cords that were activated between ~4-12 hr after the CFA induction of inflammatory pain. Superficial red neurons were counted on the left (injured) and right (uninjured) side dorsal horns (boxed areas) from 8-12 serial sections along the span of lumbar cord of each animal. […]

`Oc1c(Br)cc(CN2CCOCC2)c2cccnc12` [Compound 5, 7-bromo-5-(morpholinomethyl)quinolin-8-ol] was tested, and the “cytotoxicity” value [1] was “not toxic”, the “diarrhea and ptosis” value [2] was “did not show signs of diarrhea or ptosis” and the “jumps” value [2] was “significantly fewer jumps”. The tremor reduction [2] was 50% and the “DH neuron activation” value [3] was “significantly fewer labeled neurons in the injured side; also recorded: dramatically reduced DH neuron activation”.
